From patent publication US20250339569A1, “CARBONIC ANHYDRASE IX LIGANDS” (priority 2021, published 2025)
Read-outs that look alike come from different tables or passages of the source. Starred links: 1 amine or outer side, 2 acyl side, 3 side chain; linkers in the order of their positions; H or OH if unused. Positions of bridges follow the written chain, without caps; N, C: chain ends. Non-standard residues stand in square brackets, D forms with d. Residues, ends and D or L forms follow the SMILES beside them. *: point of attachment. Phe(3-NHCO(CH2)3SO2NH2) = N[C@@H](Cc1cccc(NC(=O)CCCS(N)(=O)=O)c1)C(=O)O; X32 = CC(=O)N[C@H](CC(=O)O)C(=O)Nc1cccc(C[C@@H](N[*:1])C(=O)[*:2])c1; X30 = Cn1ncc(C(=O)Nc2cccc(C[C@H](N[*:1])C(=O)[*:2])c2)c1C#N; X9 = O=C(CC1NC(=O)NC1=O)Nc1cccc(C[C@H](N[*:1])C(=O)[*:2])c1; DOTA = O=C(O)CN1CCN(CC(=O)O)CCN(CC(=O)*)CCN(CC(=O)O)CC1; Propanoyl(3-SO2NH2) = NS(=O)(=O)CCC(=O)*; Phe(4-NH2) = Nc1ccc(C[C@H](N)C(=O)O)cc1; mXylylene = c1cc(C[*:1])cc(C[*:2])c1; X2 = O=C(CN1CCC(N[*:1])CC1)[*:2]; X1 = O=C(CN1CCN([*:1])CC1)[*:2]; hSer = N[C@@H](CCO)C(=O)O; Ac5c = NC1(C(=O)O)CCCC1; Dap = NC[C@H](N)C(=O)O

Tests used:
[1] = molecular target: T1, human carbonic anhydrase IX (hCAIX-Fc) (Homo sapiens, UniProt Q16790); assay: Surface plasmon resonance assay with hCAIX-Fc; assay type: binding; details: 25° C.; for t1/2 category (activity): SPR dissociation half-life, hCAIX-Fc; for Kd: SPR, hCAIX-Fc captured, read-out: pKD category (activity) (converted)
T1 construct: purchased SinoBliological (Sino Biological) 10107-H02H
Protocol: Surface plasmon resonance (SPR) studies were performed using a Biacore™ T200 SPR system (GE Healthcare Life Sciences). Briefly, polarized light is directed towards a gold-labeled sensor surface, and minimum intensity reflected light is detected. The angle of reflected light changes as molecules bind and dissociate.
Fc-fusion protein of human carbonic anhydrase IX (hCAIX-Fc, SinoBliological, Cat #10107-H02H) was captured on a Fc-capture chip (Biacore™ CM5 sensor chip coated with ˜300 RU of an Fc-binding peptide). Recombinant carbonic anydrase was diluted in Running Buffer (PBST, 0.1% DMSO) to a final concentration 100 or 200 nM and than flushed over the Fc-capture chip to immobilized ˜1000 RUs.
Stock solutions of test compounds were prepared by dissolving each compound in DMSO. DMSO stock solution were diluted 1:1000 in Running Buffer without DMSO. Further sequencial dilutions were made with Running Buffer containing 0.1% DMSO. SPR binding analyses were performed in Single Cycle Kinetic (SCK) mode at 25° C. Flow cell coated with the Fc-binding peptide only served as reference flowcell. After each SCK run, carbonic andydrase IX was removed with 10 mM glycine buffer, pH 1.5.
In between every three SCK measurements, a blank run with Running Buffer instead of test compound was included to correct for baseline drifts (double blanking methods).
Table 11 describes the protocol steps for Fc-fusion target capturing and assessment of the binding kinetics.
For each test compound, SPR raw data in the form of resonance units (RU) were plotted as sensorgrams using the Biacore™ T200 control software. The signal from the blank sensorgram was subtracted from that of the test compound sensorgram (blank corrected). The blank corrected sensorgram was corrected for baseline drift by subtracting the sensorgram of a SCK run without the test compound (running buffer only). The association rate (kon), dissociation rate (koff), dissociation constant (KD), and t1/2 were calculated from Blank-normalized SPR data using the 1:1 Langmuir binding model from the Biacore™ T200 evaluation software. Raw data and fit results were imported as text files in IDBS. The pKD value (negative decadic logarithm of dissociation constant) was calculated in the IDBS excel template.

[2] = molecular target: T2, CAIX-expressing human HT-29 colorectal cancer cells (Homo sapiens, UniProt Q16790); assay: FACS binding assay (IC50 determination, competition with tracer 3BP-2776 or 3BP-4149); details: 4° C., 1 hour, read-out: pIC50 category (activity) (converted)
T2 construct: CAIX-expressing human HT-29 colorectal cancer cells; host or cells: HT-29 human colorectal cancer cells
Summary of the method: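 HT-29 cells in FACS buffer (PBS, 1% FCS) at 500.000 cells/ml were exposed to compounds competing with a labelled tracer, with biotinylated compounds detected by 1 μg/mL APC-streptavidin for 30 min on ice. APC/Cy5 median fluorescence was read by flow cytometry and IC50 derived by 4PL fit.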

[3] = FACS competition on HT-29 cells, Tracer ID 3BP-2776 (10 nM, biotin-labeled)
[4] = FACS binding assay, HT-29 cells, competition with tracer 3BP-4149 (3 nM, Cy5-labeled)
[5] = FACS binding assay, HT-29 cells, competition with tracer 3BP-2776 (10 nM, biotin-labeled)

t1/2 category (activity) [1] | Kd [1] | IC50 [2, 3] | IC50 [2, 4] | IC50 [2, 5] | Structure (SMILES)
C (t1/2 between 2.1 and 5.0 minutes) | < 0.01 µM | < 0.01 µM | – | – | CC(C)C[C@@H]1NC(=O)[C@H](Cc2c[nH]c3ccccc23)NC(=O)[C@H](CC(=O)O)NC(=O)[C@H]2CCCN2C(=O)[C@H](CCC(=O)O)NC(=O)[C@@H](NC(=O)[C@H](Cc2ccc(O)cc2)NC(=O)CN2CCC(NC(=O)CN3CCN(CC(=O)O)CCN(CC(=O)O)CCN(CC(=O)O)CC3)CC2)CSCc2cccc(c2)CSC[C@@H](C(N)=O)NC(=O)[C@H](CO)NC(=O)[C@H](Cc2c[nH]c3ccccc23)NC(=O)[C@H]([C@@H](C)O)NC1=O [3BP-3867] ({DOTA}-[X2]YCE[dP]DWLTWSC-NH2; linker 3-12 via mXylylene)
A (t1/2>15.0 minutes) | < 0.01 µM | < 0.01 µM | – | – | CC(=O)N[C@H](C(=O)N[C@@H](Cc1ccc(O)cc1)C(=O)N[C@H]1CSCc2cccc(c2)CSC[C@@H](C(N)=O)NC(=O)[C@H](CO)NC(=O)[C@H](Cc2c[nH]c3ccccc23)NC(=O)[C@H]([C@@H](C)O)NC(=O)[C@H](CC(C)C)NC(=O)[C@H](Cc2c[nH]c3ccccc23)NC(=O)[C@H](CC(=O)O)NC(=O)[C@H]2CCCN2C(=O)[C@H](CCC(=O)O)NC1=O)C(C)C [3BP-3565] (Ac-VYCE[dP]DWLTWSC-NH2; linker 3-12 via mXylylene)
A (t1/2>15.0 minutes) | < 0.01 µM | – | < 0.01 µM | – | CC(C)C[C@@H]1NC(=O)[C@H](Cc2ccc(NC(=O)CCS(N)(=O)=O)cc2)NC(=O)[C@H](CC(=O)O)NC(=O)[C@H]2CCCN2C(=O)[C@H](CCC(=O)O)NC(=O)[C@@H]2CSCc3cccc(c3)CSC[C@@H](C(N)=O)NC(=O)[C@H](CNC(=O)C[C@H](NC(=O)CN3CCN(CC(=O)O)CCN(CC(=O)O)CCN(CC(=O)O)CC3)C(=O)N2)NC(=O)[C@H](Cc2c[nH]c3ccccc23)NC(=O)[C@H]([C@@H](C)O)NC1=O [3BP-4489] ({DOTA}-DCE[dP]D[Phe(4-NH2)](Propanoyl(3-SO2NH2))LTW[Dap]C-NH2; lactam 1-10; linker 2-11 via mXylylene)
A (t1/2>15.0 minutes) | < 0.01 µM | – | – | < 0.01 µM | CC(C)C[C@@H]1NC(=O)[C@H](Cc2cccc(NC(=O)CCCS(N)(=O)=O)c2)NC(=O)[C@H](CC(=O)O)NC(=O)[C@H]2CCCN2C(=O)[C@H](CCC(=O)O)NC(=O)[C@@H](NC(=O)[C@H](Cc2ccc(O)cc2)NC(=O)CN2CCN(C(=O)CN3CCN(CC(=O)O)CCN(CC(=O)O)CCN(CC(=O)O)CC3)CC2)CSCc2cccc(c2)CSC[C@@H](C(N)=O)NC(=O)[C@H](CO)NC(=O)[C@H](Cc2c[nH]c3ccccc23)NC(=O)[C@H]([C@@H](C)O)NC1=O [3BP-4448] ({DOTA}-[X1]YCE[dP]D[Phe(3-NHCO(CH2)3SO2NH2)]LTWSC-NH2; linker 3-12 via mXylylene)
A (t1/2>15.0 minutes) | < 0.01 µM | – | < 0.01 µM | – | CC(C)C[C@@H]1NC(=O)[C@H](Cc2cccc(NC(=O)CCCS(N)(=O)=O)c2)NC(=O)[C@H](CC(=O)O)NC(=O)[C@H]2CCCN2C(=O)[C@H](CCC(=O)O)NC(=O)[C@@H]2CSCc3cccc(c3)CSC[C@@H](C(N)=O)NC(=O)[C@H](CNC(=O)C[C@H](NC(=O)[C@@H](NC(=O)CN3CCC(NC(=O)CN4CCN(CC(=O)O)CCN(CC(=O)O)CCN(CC(=O)O)CC4)CC3)C(C)C)C(=O)N2)NC(=O)[C@H](Cc2c[nH]c3ccccc23)NC(=O)[C@H]([C@@H](C)O)NC1=O [3BP-4445] ({DOTA}-[X2]VDCE[dP]D[Phe(3-NHCO(CH2)3SO2NH2)]LTW[Dap]C-NH2; lactam 3-12; linker 4-13 via mXylylene)
C (t1/2 between 2.1 and 5.0 minutes) | < 0.01 µM | – | 0.01 to 0.0794 µM | – | CC(C)C[C@@H]1NC(=O)[C@H](Cc2cccc(NC(=O)CC3NC(=O)NC3=O)c2)NC(=O)[C@H](CC(=O)O)NC(=O)[C@H]2CCCN2C(=O)[C@H](CCC(=O)O)NC(=O)[C@@H](NC(=O)[C@H](Cc2ccc(O)cc2)NC(=O)[C@@H](NC(=O)CN2CCC(NC(=O)CN3CCN(CC(=O)O)CCN(CC(=O)O)CCN(CC(=O)O)CC3)CC2)C(C)C)CSCc2cccc(c2)CSC[C@@H](C(N)=O)NC(=O)[C@H](CO)NC(=O)[C@H](Cc2c[nH]c3ccccc23)NC(=O)[C@H]([C@@H](C)O)NC1=O (stereo partly drawn) [3BP-4371] ({DOTA}-[X2]VYCE[dP]D[X9]LTWSC-NH2; linker 4-13 via mXylylene)
C (t1/2 between 2.1 and 5.0 minutes) | < 0.01 µM | < 0.01 µM | – | – | CC(C)[C@H](NC(=O)CN1CCC(NC(=O)CN2CCN(CC(=O)O)CCN(CC(=O)O)CCN(CC(=O)O)CC2)CC1)C(=O)N[C@@H](Cc1ccc(O)cc1)C(=O)N[C@H]1CSCc2cccc(c2)CSC[C@@H](C(N)=O)NC(=O)[C@H](CO)NC(=O)[C@H](Cc2c[nH]c3ccccc23)NC(=O)[C@H]([C@@H](C)O)NC(=O)C2(CCCC2)NC(=O)[C@H](Cc2c[nH]c3ccccc23)NC(=O)[C@H](CC(=O)O)NC(=O)[C@H]2CCCN2C(=O)[C@H](CCC(=O)O)NC1=O [3BP-3587] ({DOTA}-[X2]VYCE[dP]DW[Ac5c]TWSC-NH2; linker 4-13 via mXylylene)
B (t1/2 between 5.1 and 15.0 minutes) | < 0.01 µM | – | 0.01 to 0.0794 µM | – | CC(=O)N[C@H](CC(=O)O)C(=O)Nc1cccc(C[C@H]2NC(=O)[C@H](CC(=O)O)NC(=O)[C@H]3CCCN3C(=O)[C@H](CCC(=O)O)NC(=O)[C@@H](NC(=O)[C@H](Cc3ccc(O)cc3)NC(=O)[C@@H](NC(=O)CN3CCC(NC(=O)CN4CCN(CC(=O)O)CCN(CC(=O)O)CCN(CC(=O)O)CC4)CC3)C(C)C)CSCc3cccc(c3)CSC[C@@H](C(N)=O)NC(=O)[C@H](CO)NC(=O)[C@H](Cc3c[nH]c4ccccc34)NC(=O)[C@H]([C@@H](C)O)NC(=O)[C@H](CC(C)C)NC2=O)c1 [3BP-4364] ({DOTA}-[X2]VYCE[dP]D[X32]LTWSC-NH2; linker 4-13 via mXylylene)
D (t1/2≤2.0 minutes) | 0.01 to 0.0794 µM | – | 0.01 to 0.0794 µM | – | CC(C)C[C@@H]1NC(=O)[C@H](Cc2cccc(NC(=O)c3cnn(C)c3C#N)c2)NC(=O)[C@H](CC(=O)O)NC(=O)[C@H]2CCCN2C(=O)[C@H](CCC(=O)O)NC(=O)[C@@H](NC(=O)[C@H](Cc2ccc(O)cc2)NC(=O)[C@@H](NC(=O)CN2CCC(NC(=O)CN3CCN(CC(=O)O)CCN(CC(=O)O)CCN(CC(=O)O)CC3)CC2)C(C)C)CSCc2cccc(c2)CSC[C@@H](C(N)=O)NC(=O)[C@H](CO)NC(=O)[C@H](Cc2c[nH]c3ccccc23)NC(=O)[C@H]([C@@H](C)O)NC1=O [3BP-4305] ({DOTA}-[X2]VYCE[dP]D[X30]LTWSC-NH2; linker 4-13 via mXylylene)
A (t1/2>15.0 minutes) | < 0.01 µM | – | – | < 0.01 µM | CC(C)C[C@@H]1NC(=O)[C@H](Cc2c[nH]c3ccccc23)NC(=O)[C@H](CCO)NC(=O)[C@H]2CCCN2C(=O)[C@H](CCC(=O)O)NC(=O)[C@@H](NC(=O)[C@H](Cc2ccc(O)cc2)NC(=O)[C@@H](NC(=O)CN2CCC(NC(=O)CN3CCN(CC(=O)O)CCN(CC(=O)O)CCN(CC(=O)O)CC3)CC2)C(C)C)CSCc2cccc(c2)CSC[C@@H](C(N)=O)NC(=O)[C@H](CO)NC(=O)[C@H](Cc2c[nH]c3ccccc23)NC(=O)[C@H]([C@@H](C)O)NC1=O [3BP-4102] ({DOTA}-[X2]VYCE[dP][hSer]WLTWSC-NH2; linker 4-13 via mXylylene)
